Assay results as given in article PMC6934184, “Selective DNA-PKcs inhibition extends the therapeutic index of localized radiotherapy and chemotherapy” (The Journal of Clinical Investigation, 2019).

Target: T1, NEK7 (Homo sapiens, UniProt Q8TDX7)
T1 construct: purchased Thermo Fisher Scientific (Life Technologies) SelectScreen
Test: SelectScreen Z'LYTE
Format: biochemical
Outline: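 NU5455 was profiled across the SelectScreen Broad panel of kinase activity and binding assays. Z'LYTE reactions such as CSF1R ran at apparent Km ATP, while the Adapta CAMK1 assay used ATP listed as 10. Values are given as percent.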

T1 sequence (Q8TDX7 whole entry): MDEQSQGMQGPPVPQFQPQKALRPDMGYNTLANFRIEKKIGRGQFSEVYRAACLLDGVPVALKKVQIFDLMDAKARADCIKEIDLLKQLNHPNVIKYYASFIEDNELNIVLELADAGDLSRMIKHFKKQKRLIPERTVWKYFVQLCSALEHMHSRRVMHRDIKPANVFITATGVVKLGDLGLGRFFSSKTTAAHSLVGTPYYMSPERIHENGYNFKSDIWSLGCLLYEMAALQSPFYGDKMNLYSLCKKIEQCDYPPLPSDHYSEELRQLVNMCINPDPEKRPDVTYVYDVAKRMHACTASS

`CN(C(=O)CN1CCOCC1)c1ccc2sc3c(-c4cccc5c(=O)cc(N6CC7CCC(C6)O7)oc45)cccc3c2c1` [NU5455] was tested. Which inhibition at 1 µM did it give?
Its inhibition at 1 µM is -2.1%.
